For this assay, the target named is Neuronal acetylcholine receptor subunit alpha-7 (Rattus norvegicus, UniProt Q05941). Briefly: Displacement of [3H]epibatidine from alpha7 nAChR in rat brain membranes after 2 hrs. For orientation: Loss of bound radioactivity is the signal in a displacement assay; it reports binding, not function.

The text below walks through data of BindingDB's records for doi:10.1021/jm1006148 (Sri International, 2010).

Molecules are shown by their SMILES. A value given as a limit tells only on which side of the number the result lay.

Neuronal acetylcholine receptor subunit alpha-7, sequence (Q05941 whole entry): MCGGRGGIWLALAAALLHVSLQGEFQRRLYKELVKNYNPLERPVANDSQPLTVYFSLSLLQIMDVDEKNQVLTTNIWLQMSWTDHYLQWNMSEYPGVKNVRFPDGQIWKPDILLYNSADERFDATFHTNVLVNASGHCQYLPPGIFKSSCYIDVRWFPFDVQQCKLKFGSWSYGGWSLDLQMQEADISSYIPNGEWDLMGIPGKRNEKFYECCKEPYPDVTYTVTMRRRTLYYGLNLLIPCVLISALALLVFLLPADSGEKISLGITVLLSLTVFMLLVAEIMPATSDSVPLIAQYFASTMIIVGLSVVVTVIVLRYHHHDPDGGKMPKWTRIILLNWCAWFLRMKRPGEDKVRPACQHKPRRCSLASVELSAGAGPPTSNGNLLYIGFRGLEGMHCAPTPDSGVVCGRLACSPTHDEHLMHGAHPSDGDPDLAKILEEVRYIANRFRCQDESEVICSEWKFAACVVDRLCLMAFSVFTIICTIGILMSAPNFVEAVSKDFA

Molecule `CN1C2CCCC1CC(N1C(=O)Cc3ccccc31)C2` (stereo unspecified) [1-(1-(9-methyl-9-azabicyclo[3.3.1]nonan-3-yl)indolin-2-one] registered a Ki greater than 100 µM.

What is called Ki is a dissociation constant, usually derived from enzyme kinetics or from competition with a known ligand.
